The values below come from patent US6892140B1, “Immunogenic cancer peptides and uses thereof” (Enteron, Inc., priority 2000, dated 2005).

Ends that are not written are not given here.

The test has as its system antibodies in sera from prostate cancer patients. As to the kind of experiment: Prostate cancer serum test of cell surface protein peptides (Table 3). Format: binding, human. Details: key: +: positive or negative reactivity between peptides representing modified peptide regions of cancer cell surface protein molecules with antibodies in sera from prostate cancer patients; −: positive or negative reactivity between peptides representing modified peptide regions of cancer cell surface protein molecules with antibodies in sera from prostate cancer patients. Conditions: reactivity of peptide with antibodies in sera from prostate cancer patients. The text has this: Table 3 third column illustrates the positive or negative reactivity between peptides representing modified peptide regions of cancer cell surface protein molecules with antibodies in sera from prostate cancer patients. The presence or absence in prostate cancer cells of the 41 tested molecules is shown as + or − in column four.
Sixth, employing the immunoassays disclosed herein, each biotinylated peptide is screened as an antigen against sera or other relevant biological fluids containing antibodies taken from one of the following groups: cancer patients, patients with benign lesions or inflammatory conditions, and healthy subjects. Peptides can also be screened using tumor-infiltrating lymphocytes or peripheral blood-born lymphocytes from cancer patients. Candidate peptides we consider cancer-specific or cancer-associated depend on whether they fit the following definitions.
Take “kiNat: Tested peptide of cell surface protein desmoglein 2 (KINAT; also: biotin label at one end)”: the “Prostate Cancer Serum Test Result” value was “−”.
Then “pdNct: Tested peptide of cell surface protein erbB-4 (PDNCT; also: biotin label at one end)”, with “−”.
To “saNrs: Tested peptide of cell surface protein CD66 (SANRS; not fully specified)” belongs “+”.
To “kaNtt: Tested peptide of cell surface protein integrin alpha (v) (KANTT; also: biotin label at one end)” belongs “−”; to “diNss: Tested peptide of cell surface protein fgfr4 (DINSS; not fully specified)”, “−”.
Regarding “pdNdt: Tested peptide of cell surface protein insulin-like gf receptor (PDNDT; also: biotin label at one end)”, the “Prostate Cancer Serum Test Result” value is “−”.
As to “kdNrt: Tested peptide of cell surface protein pdgfr beta (KDNRT; also: biotin label at one end)”, the “Prostate Cancer Serum Test Result” value is “−”.
Then “perNrt: Tested peptide of cell surface protein erbB-1 (PERNRT; also: biotin label at one end, end not given here)”, with “−”; and “qkNss: Tested peptide of cell surface protein integrin beta 6 (QKNSS; also: biotin label at one end, end not given here)”, with “−”.
Then “teNqt: Tested peptide of cell surface protein integrin alpha (v) (TENQT; not fully specified)”, with “−”; and “ghNes: Tested peptide of cell surface protein protein-tyrosine phosphatase kappa (GHNES; also: biotin label, end not given here)”, with “−”; and “trNdt: Tested peptide of cell surface protein CD66 (TRNDT; not fully specified)”, with “−”.
Then “kaNts: Tested peptide of cell surface protein integrin alpha 5 (KANTS; also: biotin label at one end)”, with “−”; and “skNfs: Tested peptide of cell surface protein integrin beta 3 (SKNFS; not fully specified)”, with “−”; and “keNdt: Tested peptide of cell surface protein protein-tyrosine phosphatase kappa (KENDT; also: biotin label at one end)”, with “−”.
As to “skNqs: Tested peptide of cell surface protein CD66 (SKNQS; not fully specified)”, the “Prostate Cancer Serum Test Result” value is listed as “−”.
Then “mNtt: Tested peptide of cell surface protein insulin-like gf receptor”, with “−”.
To “raNhs: Tested peptide of cell surface protein integrin alpha 6 (RANHS; not fully specified)” belongs “−”; to “trNvs: Tested peptide of cell surface protein pdgfr beta (TRNVS; not fully specified)”, “−”.
Turning to “IrNes: Tested peptide of cell surface protein integrin alpha 5 (LRNES; not fully specified)”, the “Prostate Cancer Serum Test Result” value is on record as “−”.
Then “kNvtNrs: Tested peptide of cell surface protein integrin beta I (KNVTNRS; also: biotin label at one end)”, with “−”.
Take “seNas: Tested peptide of cell surface protein integrin alpha 1 (SENAS; not fully specified)”: the “Prostate Cancer Serum Test Result” value was “−”.
To “nkNvt: Tested peptide of cell surface protein integrin beta I (NKNVT; also: biotin label at one end)” belongs “+”; to “rcNgs: Tested peptide of cell surface protein integrin beta 5 (RCNGS; not fully specified)”, “−”; to “pdNqt: Tested peptide of cell surface protein integrin beta 5 (PDNQT; also: biotin label at one end)”, “−”.
To “drNgt: Tested peptide of cell surface protein CD44 (DRNGT; not fully specified)” belongs “+”.
To “drNhs: Tested peptide of cell surface protein integrin alpha 2 (DRNHS; not fully specified)” belongs “−”.
For “NhSeg: Tested peptide of cell surface protein CD44 (NHSEG; not fully specified)”, the “Prostate Cancer Serum Test Result” value is “+”.
For the substance “vkNst: Tested peptide of cell surface protein E-Cadherin (VKNST; not fully specified)”, the “Prostate Cancer Serum Test Result” value was “+”.
For “vgNks: Tested peptide of cell surface protein hepatocyte gfr (VGNKS; not fully specified)”, the “Prostate Cancer Serum Test Result” value is “−”.
Take “tkNgt: Tested peptide of cell surface protein desmoglein 1 (TKNGT; not fully specified)”: the “Prostate Cancer Serum Test Result” value is listed as “−”.
In the case of “gtNkt: Tested peptide of cell surface protein CD40 (GTNKT; also: biotin label, end not given here)”, the “Prostate Cancer Serum Test Result” value is “+”.
As to “heNct: Tested peptide of cell surface protein erbB-3 (HENCT; also: biotin label, end not given here)”, the “Prostate Cancer Serum Test Result” value is reported as “−”.
To “eyNts: Tested peptide of cell surface protein tgfr beta type II (EYNTS; not fully specified)” belongs “+”; to “eeNns: Tested peptide of cell surface protein pdgfr alpha (EENNS; not fully specified)”, “−”; to “dkNst: Tested peptide of cell surface protein CD38 (DKNST; not fully specified)”, “−”.
To “vtNrs: Tested peptide of cell surface protein integrin beta I (VTNRS; not fully specified)” belongs “−”; to “aeNct: Tested peptide of cell surface protein erbB-4 (AENCT; not fully specified)”, “−”; to “pgNrt: Tested peptide of cell surface protein CD82 (PGNRT; also: biotin label at one end, end not given here)”, “−”.
To “seNdt: Tested peptide of cell surface protein protein-tyrosine phosphatase PCP-2 (SENDT; not fully specified)” belongs “−”; to “qdNkt: Tested peptide of cell surface protein integrin alpha (v) (QDNKT; also: biotin label at one end, end not given here)”, “+”; to “evNss: Tested peptide of cell surface protein integrin beta 6 (EVNSS; not fully specified)”, “−”.
Turning to “qrNit: Tested peptide of cell surface protein integrin alpha 1 (QRNIT; not fully specified)”, the “Prostate Cancer Serum Test Result” value is “−”.
For the substance “dtNrs: Tested peptide of cell surface protein erbB-2 (DTNRS; not fully specified)”, the “Prostate Cancer Serum Test Result” value is given as “+”.
Then “gdNrt: Tested peptide of cell surface protein protein-tyrosine phosphatase kappa (GDNRT; also: biotin label, end not given here)”, with “−”; and “esNrt: Tested peptide of cell surface protein fgfr1 (ESNRT; not fully specified)”, with “−”; and “hkNqt: Tested peptide of cell surface protein ICAM 1 (HKNQT; also: biotin label, end not given here)”, with “−”.
To “sdNst: Tested peptide of cell surface protein CD53 (SDNST; not fully specified)” belongs “−”; to “spNhs: Tested peptide of cell surface protein CD44 (SPNHS; not fully specified)”, “−”; to “dkNls: Tested peptide of cell surface protein N-Cadherin (DKNLS; not fully specified)”, “+”.
